Measurements from patent US12527873B2, “Glycocalyx mimetic coatings” (The Regents of The University of California, priority 2019, dated 2026).

Assays:
[1] = molecular target: T1, E-selectin (Homo sapiens, UniProt P16581); assay: Binding to E-selectin coated surfaces (fluorescently tagged molecule, MFI); details: increasing concentrations; MFI normalized to vehicle (HBSS); FIG. 6
T1 sequence (P16581 22-610): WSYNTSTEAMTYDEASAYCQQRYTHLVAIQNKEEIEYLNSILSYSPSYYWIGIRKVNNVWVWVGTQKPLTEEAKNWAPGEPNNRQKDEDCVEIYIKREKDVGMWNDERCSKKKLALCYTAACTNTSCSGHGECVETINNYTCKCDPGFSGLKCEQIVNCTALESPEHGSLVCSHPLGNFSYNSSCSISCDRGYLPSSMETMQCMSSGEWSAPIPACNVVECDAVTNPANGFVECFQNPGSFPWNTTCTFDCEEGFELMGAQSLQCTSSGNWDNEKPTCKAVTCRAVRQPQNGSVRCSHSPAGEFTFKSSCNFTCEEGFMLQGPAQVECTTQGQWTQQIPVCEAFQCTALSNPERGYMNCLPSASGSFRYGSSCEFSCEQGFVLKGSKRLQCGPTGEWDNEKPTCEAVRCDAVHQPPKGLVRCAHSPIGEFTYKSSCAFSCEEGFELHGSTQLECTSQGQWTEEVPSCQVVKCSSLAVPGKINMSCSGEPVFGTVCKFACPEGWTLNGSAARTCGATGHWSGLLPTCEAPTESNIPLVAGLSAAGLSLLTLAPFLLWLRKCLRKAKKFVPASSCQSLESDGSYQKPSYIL
Protocol: (§1) P- and E-selectin coated surfaces were treated with fluorescently tagged DS-IkL (30 μM, empty bars) or DS (30 μM, filled bars). […] Data are represented as means±SEM. *p<0.05, **p<0.01, ***p<0.001. n=3 independent experiments.

[2] = molecular target: T2, P-selectin (Homo sapiens, UniProt P16109); assay: Binding to P-selectin coated surfaces (fluorescently tagged molecule, MFI); details: increasing concentrations; MFI normalized to vehicle (HBSS); FIG. 6
T2 sequence (P16109 42-830): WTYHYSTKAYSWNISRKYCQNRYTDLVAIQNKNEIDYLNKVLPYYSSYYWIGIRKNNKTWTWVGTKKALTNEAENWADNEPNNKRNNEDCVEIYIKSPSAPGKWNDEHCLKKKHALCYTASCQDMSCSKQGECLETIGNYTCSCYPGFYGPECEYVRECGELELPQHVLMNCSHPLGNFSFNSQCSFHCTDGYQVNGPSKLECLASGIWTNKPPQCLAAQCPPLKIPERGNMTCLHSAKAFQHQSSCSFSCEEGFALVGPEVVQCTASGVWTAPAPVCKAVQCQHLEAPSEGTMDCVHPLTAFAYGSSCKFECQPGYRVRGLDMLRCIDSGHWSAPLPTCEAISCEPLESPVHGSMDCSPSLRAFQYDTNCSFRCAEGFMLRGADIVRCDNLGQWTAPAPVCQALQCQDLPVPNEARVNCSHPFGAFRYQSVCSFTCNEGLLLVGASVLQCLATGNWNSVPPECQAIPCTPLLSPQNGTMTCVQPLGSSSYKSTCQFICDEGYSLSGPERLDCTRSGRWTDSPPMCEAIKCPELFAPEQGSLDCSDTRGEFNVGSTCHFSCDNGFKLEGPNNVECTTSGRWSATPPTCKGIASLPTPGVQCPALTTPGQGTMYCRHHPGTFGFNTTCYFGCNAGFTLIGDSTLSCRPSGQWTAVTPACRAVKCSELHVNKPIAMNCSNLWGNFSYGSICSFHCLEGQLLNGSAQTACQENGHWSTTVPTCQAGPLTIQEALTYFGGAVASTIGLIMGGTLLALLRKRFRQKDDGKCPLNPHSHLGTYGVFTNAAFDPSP
Protocol: as §1

[3] = tested on: stimulated human cardiac microvascular endothelial cells (HCMECs); assay: Platelet activation on stimulated HCMECs (NAP-2, PF-4 in supernatant); type: cell-based; details: DS-IkL 30 μM, IkL peptide 450 μM, DS 30 μM, platelets 1 hour on TNF-α/IL-1β stimulated HCMECs
From the text: Enhanced platelet activation and binding have been implicated in a multitude of chronic inflammatory diseases, including acute coronary and pulmonary syndromes (Lisman, T, Cell Tissue Res. 2018; 371(3):567-576). Activated platelets release cytokines such as platelet factor 4 (PF-4) and neutrophil activating peptide 2 (NAP-2) that can in turn activate neutrophils (Pitchford, S., D. Pan, and H. C. Welch. Curr. Opin. Hematol. 2017; 24(1):23-31). To test if treatment of inflamed endothelial cells with DS-IkL could reduce the activation of platelets as assessed by PF-4 and NAP-2 levels, platelets were allowed to interact with stimulated human cardiac microvascular endothelial cells (HCMECs, PromoCell) under standard culture conditions for 1 hour before supernatant was collected. Stimulation media was prepared by diluting to 0.4 ng/ml tumor necrosis factor alpha (TNF-α) and 0.3 ng/ml interleukin 1 beta (IL-1β) in complete endothelial growth medium MV (PromoCell).

[4] = molecular target: T1, E-selectin; assay: PMN binding to E-selectin coated microspheres (flow cytometry); type: cell-based; design: purchased R&D Systems; details: IkL peptide 450 μM, DS-IkL15 30 μM; p<0.05; FIG. 9
Protocol: To validate the new molecule, fluorescent carboxylate microspheres were coated with recombinant human E-selectin (R&D Systems, Minneapolis, MN) using a PolyLink coupling kit (PolySciences Inc., Warrington, PA). Functionalized microspheres were treated with HBSS^+/+, EC-SEAL (30 μM), DS-IkL10 (30 μM), DS-IkL15 (30 μM), or GMI-1070 ([…]) for one hour. During this time, human neutrophils were isolated from whole blood using an established protocol. Briefly, 6 mL of whole blood were collected into an EDTA coated tube in accordance with the UC Davis Internal Review Board under IRB assurance No. 00004557. Neutrophils were isolated using an EasyStep Direct Human Neutrophil Isolation Kit (Stem Cell Technologies, Vancouver, BC, Canada), centrifuged, and resuspended in HBSS^+/+, with 0.1% human serum albumin (HSA) at 1×10^6 cells/mL. Cells were labeled with fluorescently tagged anti-CD15 for detection. Microspheres were pelleted and resuspended in 100 uL labeled neutrophils, then incubated for 30 minutes at room temperature with rotation (150 rpm). Samples were fixed in 4% PFA and read on an Attune NxT Flow Cytometer. Data was analyzed using FlowJo flow cytometry software (San Diego, Calif.) to determine the top three performing variants. This was repeated 2-6 times for an n of 3-7. […]

Substance	binding to E-selectin coated surfaces [1]	binding to P-selectin coated surfaces [2]	platelet activation as assessed by NAP-2 ([3]; FIG. 7)	platelet activation as assessed by PF-4 ([3]; FIG. 8)	neutrophil adhesion to microspheres [4]
dermatan sulfate [DS]	not observed in the DS group	not observed in the DS group	–	–	–
Ile-(D)lys-Leu-Leu-(D)pro-Hyp-Arg [IkL peptide]	–	–	reduced	reduced	approximately 75 % of control
